Assay results: US12594271B2, “Combination therapy for cancer” (Health Research, Inc., priority 2019, dated 2026)

Tested on: MDSCs
Assay: MDSC suppression assay: inhibition of T cell proliferation by in vitro generated MDSCs
Type: cell-based, mouse
Details: ATRA 10 μM at start of culture, side-by-side with BRQ 1 μM
Description: FIG. 2. […] (A) MDSCs were produced in vitro from mouse bone marrow cells using GM-CSF and G-CSF±BRQ (1 μM) or ATRA (10 μM) at the start of the 4-day culture. Cells tested for their ability to inhibit T cell proliferation (1:1 ratio), as in FIG. 5. Fresh BM=Uncultured bone marrow cells. (B) Similar to A, except that uridine (200 μM) was added to rescue the effect of BRQ. (C) Expression of IRF8 (upper) or SLFN4 (lower) was analyzed by qRT-PCR in Lin^− BM cells cultured as in A for 2 days. Data normalized to the vehicle.
In Vitro Development of MDSCs. Unfractionated mouse bone marrow cells were cultured in dishes with recombinant mouse G-CSF and recombinant mouse GM-CSF (40 ng/ml of each cytokine) for 96 hours to produce MDSCs, as described (Marigo et al. Immunity 32:790-802, 2010). After culture, cells were collected and analyzed by flow cytometry for the indicated cell surface markers. Uncultured or fresh bone marrow (BM) cells served as a negative control.
Cultured Cells Develop Potent Immunosuppressive Capacity. Using the methods described for FIG. 4, experiments were then performed to determine whether the cells generated from this BM culture system functionally behaved as MDSCs, based on their ability to inhibit T cell proliferation in vitro. To that end, fresh BM (i.e., no in vitro culture) or cultured BM cells (i.e., MDSCs at two different MDSC-to-T cell ratios of 1:1 or 1:2) were co-mixed in 96-well plates with CellTrace Violet (CTV)—stained syngeneic naïve splenocytes as a source of T cells and stimulated with or without soluble agonistic anti-CD3 monoclonal antibody (mAb) (1 μg/ml) for 72 hours. After co-culture, CTV dye dilution in the gated CD4^+ or CD8^+ T cell fractions within the splenocyte populations was analyzed by flow cytometry to determine the extent of proliferation based on dye dilution. In FIG. 5, top panels show CTV dye dilution, as determined by flow cytometry and depicted as a histogram; bottom panels indicate the percentage of proliferation, based on quantification of the histogram data. […]

CC1=C(/C=C/C(C)=C/C=C/C(C)=C/C(=O)O)C(C)(C)CCC1 [ATRA, all-trans retinoic acid]
ability of in vitro generated MDSCs to inhibit CD4+ or CD8+ T cell proliferation: BRQ is more effective than ATRA
